In US20240425492A1, “POLYMORPHS AS ERBB INHIBITORS” (Black Diamond Therapeutics, Inc., priority 2021, published 2024):
In brackets after ≈: the same amount, converted by molar mass.

What was measured:
[1] = Hygroscopicity by DVS at 25° C.; format: physicochemical; settings: for Desorp. (%) / Sorp. (%): DVS 25° C.
Protocol: Dynamic Vapor Sorption (DVS): DVS analysis was performed using Intrinsic. Analysis was performed using parameters as set forth below.
The hygroscopicity for Form C and Form F was examined. See, e.g., Table E.

[2] = Bulk stability under accelerated storage conditions (XRPD and HPLC); settings: for Bulk (XRPD) / Purity, Bulk (HPLC): Solid state
Excerpt: Solids obtained after bulk stability study were characterized by XRPD and HPLC.

[3] = Solubility study in aqueous media at 37° C. (HPLC of supernatants, pH); settings: for solubility / solubility at 2 h / solubility at 24 h: 37 °C, thermodynamic from solid
Protocol: 2.01 mg of the free base Form C (equal to 2 mg free base after correction for water content) was weighed into 2 mL vial. 2.09 mg of the free base Form F (equal to 2 mg free base after correction for water content) was weighed into a 2 mL vial. I mL of aqueous media was added, respectively. These suspensions were stirred at 37° C. at a rate of 400 rpm. These suspensions were taken out after 2 h and 24 h, and then centrifuged at 14,000 rpm for 5 minutes. The supernatants were analyzed by HPLC. The pH of the supernatants were tested.

[4] = 25° C./92.5% RH in an open vial, 2 weeks
[5] = 25° C./92.5% RH in an open vial, 4 weeks
[6] = 40° C./75% RH in an open vial, 2 weeks
[7] = 40° C./75% RH in an open vial, 4 week
[8] = 60° C., tight container, 2 weeks
[9] = 60° C., tight container, 4 weeks
[10] = SGF, pH 2, simulated gastric fluid
[11] = pH 1.0 HCl solution (0.1N), pH 1, simulated gastric fluid
[12] = pH 4.5 acetate buffer (50 mM), pH 4.5, aqueous buffer
[13] = pH 6.8 phosphate buffer (50 mM), pH 6.8, aqueous buffer

DVS water uptake at 90% RH ([1]; 25° C., dm/dt = 0.002%): 1.6% water uptake at 90% RH
DVS water uptake at 95% RH ([1]; 25° C., dm/dt = 0.002%): 2.3% water uptake at 95% RH
Desorp. (%) ([1]; Relative Humidity 0%, first Desorp.): 0.2%
Sorp. (%) ([1]; Relative Humidity 0%, first Sorp.): 0.2%
Desorp. (%) ([1]; Relative Humidity 0%, second Desorp.): 0.0%
Sorp. (%) ([1]; Relative Humidity 0%, second Sorp.): 0.0%
Desorp. (%) ([1]; Relative Humidity 10%, first Desorp.): 0.3%
Sorp. (%) ([1]; Relative Humidity 10%, first Sorp.): 0.2%
Desorp. (%) ([1]; Relative Humidity 10%, second Desorp.): 0.1%
Sorp. (%) ([1]; Relative Humidity 10%, second Sorp.): 0.1%
Desorp. (%) ([1]; Relative Humidity 20%, first Desorp.): 0.4%
Sorp. (%) ([1]; Relative Humidity 20%, first Sorp.): 0.3%
Desorp. (%) ([1]; Relative Humidity 20%, second Desorp.): 0.2%
Sorp. (%) ([1]; Relative Humidity 20%, second Sorp.): 0.2%
Desorp. (%) ([1]; Relative Humidity 30%, first Desorp.): 0.5%
Sorp. (%) ([1]; Relative Humidity 30%, first Sorp.): 0.4%
Desorp. (%) ([1]; Relative Humidity 30%, second Desorp.): 0.3%
Sorp. (%) ([1]; Relative Humidity 30%, second Sorp.): 0.3%
Desorp. (%) ([1]; Relative Humidity 40%, first Desorp.): 0.5%
Sorp. (%) ([1]; Relative Humidity 40%, first Sorp.): 0.4%
Desorp. (%) ([1]; Relative Humidity 40%, second Desorp.): 0.4%
Sorp. (%) ([1]; Relative Humidity 40%, second Sorp.): 0.3%
Sorp. (%) ([1]; Relative Humidity 50%, first Sorp.): 0.5%
Desorp. (%) ([1]; Relative Humidity 50%, second Desorp.): 0.6%
Sorp. (%) ([1]; Relative Humidity 60%, first Sorp.): 0.6%
Desorp. (%) ([1]; Relative Humidity 60%, second Desorp.): 1.1%
Sorp. (%) ([1]; Relative Humidity 70%, first Sorp.): 0.8%
Desorp. (%) ([1]; Relative Humidity 70%, second Desorp.): 1.4%
Sorp. (%) ([1]; Relative Humidity 80%, first Sorp.): 1.2%
Desorp. (%) ([1]; Relative Humidity 80%, second Desorp.): 1.7%
Sorp. (%) ([1]; Relative Humidity 90%, first Sorp.): 1.8%
Desorp. (%) ([1]; Relative Humidity 90%, second Desorp.): 2.2%
Sorp. (%) ([1]; Relative Humidity 95%, first Sorp.): 2.5%
Desorp. (%) ([1]; Relative Humidity 95%, second Desorp.): 2.5%
XRPD after DVS test ([1]; DVS at 25° C.): No form change
HPLC area Purity ([2]; 1 Month, 5° C.): 98.2%
Water content ([2]; 1 Month, 5° C.): 0.5%
impurity RRT0.967 ([2]; 1 Month, 5° C.): 0.07%
impurity RRT0.971 ([2]; 1 Month, 5° C.): 0.08%
impurity RRT1.20 ([2]; 1 Month, 5° C.): 0.06%
impurity RRT1.24 ([2]; 1 Month, 5° C.): 1.4%
impurity RRT1.26 ([2]; 1 Month, 5° C.): 0.13%
impurity RRT1.28 ([2]; 1 Month, 5° C.): 0.11%
HPLC area Purity ([2]; 1 Month, 25° C./60% RH): 98.2
Water content ([2]; 1 Month, 25° C./60% RH): 0.4%
impurity RRT0.967 ([2]; 1 Month, 25° C./60% RH): 0.07%
impurity RRT0.971 ([2]; 1 Month, 25° C./60% RH): 0.08%
impurity RRT1.20 ([2]; 1 Month, 25° C./60% RH): 0.06%
impurity RRT1.24 ([2]; 1 Month, 25° C./60% RH): 1.4%
impurity RRT1.26 ([2]; 1 Month, 25° C./60% RH): 0.13%
impurity RRT1.28 ([2]; 1 Month, 25° C./60% RH): 0.11%
HPLC area Purity ([2]; 1 Month, 40° C./75% RH): 98.2%
Water content ([2]; 1 Month, 40° C./75% RH): 0.7%
impurity RRT0.967 ([2]; 1 Month, 40° C./75% RH): 0.08%
impurity RRT0.971 ([2]; 1 Month, 40° C./75% RH): 0.08%
impurity RRT1.20 ([2]; 1 Month, 40° C./75% RH): 0,07%
impurity RRT1.24 ([2]; 1 Month, 40° C./75% RH): 1.4%
impurity RRT1.26 ([2]; 1 Month, 40° C./75% RH): 0.13%
impurity RRT1.28 ([2]; 1 Month, 40° C./75% RH): 0.11%
HPLC area Purity ([2]; Initial): 98.1
Water content ([2]; Initial): 0.4%
impurity RRT0.967 ([2]; Initial): 0.09%
impurity RRT0.971 ([2]; Initial): 0.06%
impurity RRT1.20 ([2]; Initial): 0.06%
impurity RRT1.24 ([2]; Initial): 1.4%
impurity RRT1.26 ([2]; Initial): 0.13%
impurity RRT1.28 ([2]; Initial): 0.12%
impurity RrRT1.12 ([2]; Initial): 0.05%
polymorph ([2]; Initial): Form C
Bulk (XRPD) [2, 4]: No form change
Purity, Bulk (HPLC) [2, 4]: 96.6%
Bulk (XRPD) [2, 5]: No form change
Purity, Bulk (HPLC) [2, 5]: 96.4%
Bulk (XRPD) [2, 6]: No form change
Purity, Bulk (HPLC) [2, 6]: 95.5%
Bulk (XRPD) [2, 7]: No form change
Purity, Bulk (HPLC) [2, 7]: 94.6%
Bulk (XRPD) [2, 8]: No form change
Purity, Bulk (HPLC) [2, 8]: 95.5%
Bulk (XRPD) [2, 9]: No form change
Purity, Bulk (HPLC) [2, 9]: 93.3%
form change after bulk stability study (XRPD) ([2]; three accelerated conditions, two weeks and four weeks): do not change forms
stability in FaSSIF-v1 ([3]; 37° C., FaSSIF-v1): degraded
stability in FeSSIF-v1 ([3]; 37° C., FeSSIF-v1): degraded
2 h Solubility ([3]; FaSSIF-v1, pH 6.5, 37° C.): Degradation
24 h Solubility ([3]; FaSSIF-v1, pH 6.5, 37° C.): Degradation
2 h Solubility ([3]; FeSSIF-v1, pH 5.0, 37° C.): Degradation
24 h Solubility ([3]; FeSSIF-v1, pH 5.0, 37° C.): Degradation
solubility [3, 10]: > 2000 µg/mL
solubility at 2 h [3, 10]: > 2000 µg/mL
solubility at 24 h [3, 10]: > 2000 µg/mL
24 h (pH) of supernatant ([3]; SGF, pH 2.0, 37° C.): pH 3.7
24 h (pH) of supernatant ([3]; Water, 37° C.): pH 7.4
24 h (pH) of supernatant ([3]; pH 1.0 (0.1N HCl), 37° C.): pH 1.0
solubility at 2 h [3, 11]: > 2000 µg/mL
solubility at 24 h [3, 11]: > 2000 µg/mL
solubility ([3]; pH 1.0 HCl solution, pH 1, simulated gastric fluid): > 2000 µg/mL
24 h (pH) of supernatant ([3]; pH 4.5 (50 mM) acetate buffer, 37° C.): pH 4.5
solubility [3, 12]: > 2000 µg/mL
solubility at 2 h [3, 12]: 2000 µg/mL (≈ 3560 µM)
solubility at 24 h [3, 12]: > 2000 µg/mL
24 h (pH) of supernatant ([3]; pH 6.8 (50 mM) phosphate buffer, 37° C.): pH 6.7
solubility [3, 13]: ~20 µg/mL (≈ 35.6 µM)
solubility at 2 h [3, 13]: 20.4 µg/mL (≈ 36.4 µM)
solubility at 24 h [3, 13]: 16.5 µg/mL (≈ 29.4 µM)
solubility ([3]; pure water, water): < 10 µg/mL
solubility at 2 h ([3]; water): 1.6 µg/mL (≈ 2.85 µM)
solubility at 24 h ([3]; water): 2 µg/mL (≈ 3.56 µM)
Compound: CN1C[C@H]2C[C@@]2(C#Cc2cc3ncnc(Nc4cccc(Cl)c4F)c3cc2NC(=O)/C=C/CN2CCOCC2)C1 [Form C]
